Measurements taken from PubChem BioAssay AID248 (DTP/NCI, 2004).
Where “and” joins values, the source holds several entries; their conditions need not be identical. Equal values may be shown once. Inconclusive results and toxic doses are left out.

System: L1210 leukemia ip in BDF1 mice, survival T/C
Assay: NCI In Vivo Anticancer Drug Screen. Data for tumor model L1210 Leukemia (intraperitoneal) in B6D2F1 (BDF1) mice
Details: endpoint: mean survival time, higher = longer survival
Procedure, shortened: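 Mice bearing the transplanted tumor received compound or vehicle. Survival of the treated group was divided by that of the vehicle-treated control group to give the ratio.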

[1] = dose: 100.0 mg/kg/injection, schedule: Q04DX003 (ip), vehicle: saline with Tween-80
[2] = dose: 200.0 mg/kg/injection, schedule: Q04DX003 (ip), vehicle: saline with Tween-80
[3] = dose: 400.0 mg/kg/injection, schedule: Q04DX003 (ip), vehicle: saline with Tween-80
[4] = dose: 100.0 mg/kg/injection, schedule: Q04DX003 (ip), vehicle: Klucel (hydroxypropylcellulose) (HPC)
[5] = dose: 200.0 mg/kg/injection, schedule: Q04DX003 (ip), vehicle: Klucel (hydroxypropylcellulose) (HPC)
[6] = dose: 400.0 mg/kg/injection, schedule: Q04DX003 (ip), vehicle: Klucel (hydroxypropylcellulose) (HPC)
[7] = dose: 100.0 mg/kg/injection, schedule: Q04DX002 (ip), vehicle: Klucel (hydroxypropylcellulose) (HPC)
[8] = dose: 100.0 mg/kg/injection, schedule: Q01DX009 (ip), vehicle: Klucel (hydroxypropylcellulose) (HPC)

O=Nc1ccc(NO)cc1 was tested, and the T/C [1] was 98 % of control and 100 % of control, the T/C [2] was 98 % of control and 100 % of control and the T/C [3] was 108 % of control and 91 % of control.

In the case of COc1cc(NC(=O)O/N=C/c2ccccn2)cc(OC)c1OC, the T/C (dose: 100.0 mg/kg/injection, schedule: Q01DX009 (ip), vehicle: saline with Tween-80) is reported as 91 % of control and the T/C (dose: 200.0 mg/kg/injection, schedule: Q01DX009 (ip), vehicle: saline with Tween-80) is reported as 92 % of control.

In the case of CC1(C)Cc2cccc(C=C(C#N)C#N)c2O1, the T/C [4] is reported as 106 % of control, the T/C [5] is reported as 97 % of control and the T/C [6] is reported as 113 % of control.

In the case of COc1cccc(C=O)c1[N+](=O)[O-], the T/C [7] is reported as 104 % of control, the T/C (dose: 200.0 mg/kg/injection, schedule: Q04DX002 (ip), vehicle: Klucel (hydroxypropylcellulose) (HPC)) is reported as 108 % of control and the T/C (dose: 400.0 mg/kg/injection, schedule: Q04DX002 (ip), vehicle: Klucel (hydroxypropylcellulose) (HPC)) is reported as 97 % of control.

With C1CCC2C[N-]CCC2C1.C1CCC2C[N-]CCC2C1.C1CCC2C[N-]CCC2C1.C1CCC2C[N-]CCC2C1.[I][Fe][I] (stereo unspecified) the T/C (dose: 50.0 mg/kg/injection, schedule: Q01DX009 (ip), vehicle: saline) was 89 % of control and the T/C (dose: 100.0 mg/kg/injection, schedule: Q01DX009 (ip), vehicle: saline) was 94 % of control.

For Cc1ccc(S(=O)(=O)Nc2c(C)c(Cl)c(C)c3ccccc23)cc1, the T/C [1] was 94 % of control, the T/C [2] was 87 % of control and the T/C [3] was 89 % of control.

In the case of CO[As](OC)c1ccc(N=Nc2ccc(N(C)C)cc2)cc1, the T/C (dose: 1.56 mg/kg/injection, schedule: Q04DX003 (ip), vehicle: Klucel (hydroxypropylcellulose) (HPC)) is reported as 100 % of control, the T/C (dose: 3.13 mg/kg/injection, schedule: Q04DX003 (ip), vehicle: Klucel (hydroxypropylcellulose) (HPC)) is reported as 100 % of control and the T/C (dose: 6.25 mg/kg/injection, schedule: Q04DX003 (ip), vehicle: Klucel (hydroxypropylcellulose) (HPC)) is reported as 92 % of control.

With [Cu+2].[O-]c1ccc(Br)c2cccnc12.[O-]c1ccc(Br)c2cccnc12 the T/C (dose: 25.0 mg/kg/injection, schedule: Q01DX001 (ip), vehicle: carboxymethylcellulose (CMC)) was 103 % of control and the T/C (dose: 50.0 mg/kg/injection, schedule: Q01DX001 (ip), vehicle: carboxymethylcellulose (CMC)) was 105 % of control.

In the case of N#Cc1ccc(OCc2nc(N)nc(N)c2-c2ccc(Cl)cc2)cc1, the T/C [1] is reported as 104 % of control and the T/C [2] is reported as 100 % of control.

For CCN(C(=O)COc1ccc(Cl)cc1)c1ccccc1C, the T/C [8] was 102 % of control, the T/C [4] was 101 % of control and the T/C (dose: 200.0 mg/kg/injection, schedule: Q01DX009 (ip), vehicle: Klucel (hydroxypropylcellulose) (HPC)) was 107 % of control. For the same compound, the T/C [5] was 97 % of control, the T/C (dose: 400.0 mg/kg/injection, schedule: Q01DX009 (ip), vehicle: Klucel (hydroxypropylcellulose) (HPC)) was 116 % of control and the T/C [6] was 98 % of control.

Cc1nc(N)ncc1CCC1OCCO1 was tested, and the T/C (dose: 25.0 mg/kg/injection, schedule: Q04DX002 (ip), vehicle: saline) was 91 % of control, the T/C (dose: 50.0 mg/kg/injection, schedule: Q04DX002 (ip), vehicle: saline) was 100 % of control and the T/C [7] was 175 % of control. For the same compound, the T/C (dose: 100.0 mg/kg/injection, schedule: Q04DX002 (ip), vehicle: saline) was 107 % of control and the T/C (dose: 200.0 mg/kg/injection, schedule: Q04DX002 (ip), vehicle: saline) was 103 % of control.

For CCCCCCCCCCCc1cc(=O)n(-c2ccccc2)n1C, the T/C (dose: 12.5 mg/kg/injection, schedule: Q04DX003 (ip), vehicle: saline with Tween-80) was 92 % of control, the T/C (dose: 25.0 mg/kg/injection, schedule: Q04DX003 (ip), vehicle: saline with Tween-80) was 98 % of control and the T/C (dose: 50.0 mg/kg/injection, schedule: Q04DX003 (ip), vehicle: saline with Tween-80) was 95 % of control. The T/C [2] was 102 % of control.

In the case of CC(C)=CCc1cc(OC(=O)OCc2ccccc2)c2ccccc2c1O, the T/C (dose: 100.0 mg/kg/injection, schedule: Q01DX001 (ip), vehicle: Klucel (hydroxypropylcellulose) (HPC)) is reported as 96 % of control, the T/C (dose: 200.0 mg/kg/injection, schedule: Q01DX001 (ip), vehicle: Klucel (hydroxypropylcellulose) (HPC)) is reported as 93 % of control and the T/C (dose: 400.0 mg/kg/injection, schedule: Q01DX001 (ip), vehicle: Klucel (hydroxypropylcellulose) (HPC)) is reported as 101 % of control.

OC(C/C=C/c1ccccc1)c1ccccc1 (stereo unspecified) was tested, and the T/C (dose: 50.0 mg/kg/injection, schedule: Q01DX009 (ip), vehicle: Klucel (hydroxypropylcellulose) (HPC)) was 91 % of control and the T/C [8] was 97 % of control.

With Cc1ccc(S(=O)(=O)OCC2CC=CCC2COS(=O)(=O)c2ccc(C)cc2)cc1 (stereo unspecified) the T/C (dose: 100.0 mg/kg/injection, schedule: Q01DX001 (ip), vehicle: saline) was 88 % of control, the T/C (dose: 200.0 mg/kg/injection, schedule: Q01DX001 (ip), vehicle: saline) was 92 % of control and the T/C (dose: 400.0 mg/kg/injection, schedule: Q01DX001 (ip), vehicle: saline) was 88 % of control.
